These results are taken from US20100130436A1, “CO-ADMINISTRATION OF RANOLAZINE AND CARDIAC GLYCOSIDES” (priority 2008, published 2010).

Structures are written as SMILES.

In one series the test system is cardiac tissues. The following applies: Heers et al. 1991; Damiano et al. 1991; cited from earlier work.
Series [1] has as its system guinea pig isolated, perfused heart. The series can be described thus: 31P-NMR spectroscopy of energy-related phosphates and pHi in isolated heart.
For another series, the system named is cat papillary muscles. The following applies: 1.37 μmol/L ouabain, Lee et al. 1960; cited from earlier work.
Series [2] has as its system [Na+]i of guinea pig isolated heart. Put plainly: 23Na-NMR spectroscopy of intracellular sodium concentration in isolated heart. The following applies: for [Na+]i: absence of ranolazine, n=4.
Another series deals with Na+, K+-ATPase. The series can be described thus: Na+,K+-ATPase activity assay by 86Rb+ uptake of A7r5 cells. In kind it is cell-based. The settings on record: 1 mmol/L ouabain, absence of ranolazine. The text has this: The activity of Na^+, K^+-ATPase was inhibited 77% by 1 mmol/L ouabain in the absence (control) of ranolazine. Values of ^86Rb^+ uptake were 91±11, 98±2.5, and 93±8.3% of control (activity in presence of ouabain) in the presence of 3, 10, and 30 μmol/L ranolazine, respectively.

Series [3] has as its system guinea pig isolated, perfused heart.
The subject of series [4] is late sodium current (late INa). Put plainly: Whole-cell patch-clamp of late INa in isolated ventricular myocytes. Type of series: cell-based, guinea pig.
[5] abbreviates: 0.75 μmol/L ouabain for 60 min, n=5.
[6] abbreviates: Example 1, ouabain-alone treated hearts.
Where [7] appears, read: after ouabain treatment (discussion).
Setting [8] is: FIG. 1, after ouabain without ranolazine.

For the molecule `CN(c1nc2ccccc2s1)C1CCN(CCCCOc2ccc(F)cc2)CC1` [R56865], the “sodium and calcium overload during exposure to cardiac glycosides” value in the series on cardiac tissues is “reduce sodium and calcium overload”.
`C[C@@H]1O[C@@H](O[C@H]2C[C@@H](O)[C@]3(CO)[C@H]4[C@H](O)C[C@]5(C)[C@@H](C6=CC(=O)OC6)CC[C@]5(O)[C@@H]4CC[C@]3(O)C2)[C@H](O)[C@H](O)[C@H]1O` [ouabain]: in series [1] (setting [5]), the “[ATP] decline” value is on record as 55±6%, the “[PCr] decline” value was 56±7% and the “[Pi] increase” value is 3.7±0.9 -fold. In addition, the “[Pi] before washout” value in series [1] (0.75 μmol/L ouabain for 60 min, control 2.9±0.2) worked out at 9.1 ± 0.5 mmol/L. The molecule further gave a pHi in series [1] (0.75 μmol/L ouabain for 60 min, control 7.15±0.01) of 7.07±0.01. The “decrease of |ΔG~ATP|” value in series [1] (0.75 μmol/L ouabain for 60 min, control 59.2 kJ/mol) amounted to 7.2 ± 1.2 kJ/mol. Further, in series [1] (setting [6]), the “ATP content reduced by” value was found to be 64%, the “intracellular inorganic phosphate (Pi) increase” value stood at 4.8 fold and the “phosphocreatine (PCr) content reduced by” value was 59%. In series [1] (Example 1, ouabain-alone treated hearts, baseline 7.14), this molecule gave a pH of 7.07. In addition, in series [1] (after 0.75 μmol/L ouabain), the “[Pi] after 20-min washout” value came out at 5.8 ± 0.4 mmol/L and the “pHi after 20-min washout” value is 7.15. Besides, in series [1] (setting [7]), the “loss of [ATP] and [PCr]” value is recorded as “over 50%”; the “reduction of the value of |ΔG~ATP|” value was found to be 7 kJ/mol. Moreover, in the series on cat papillary muscles, the “reduction of [ATP]” value is 42% and the “reduction of [PCr]” value was 66%. In addition, the “[Na+]i” value in series [2] (0.75 μmol/L ouabain for 40 min) was 14.9 ± 0.9 mmol/L. In series [2] (0.75 μmol/L ouabain for 76 min), the “[Na+]i” value is 18.1 ± 0.9 mmol/L. For the same molecule, the “[Na+]i plateau level” value in series [2] (1.3 μmol/L ouabain alone, n=6) worked out at 22.9 ± 0.7 mmol/L. The “increase of [Na+]i” value in series [2] (1.3 μmol/L ouabain, at 60 min) is given as 3.3 -fold. In addition, the “[Na+]i after washout of ouabain for 20 min” value in series [2] (after 1.3 μmol/L ouabain, n=5) is 10.3 ± 1.8 mmol/L. In addition, the “activity of Na+, K+-ATPase inhibited” value in the series with Na+, K+-ATPase was 77%. Moreover, the “hearts with episodes of cardiac standstill” value in series [3] (0.75 μmol/L ouabain for 60 min, alone) is listed as 11 out of 13. In addition, the LVSP in series [3] (0.75 μmol/L ouabain, from 96±2 mmHg, n=13) stood at 148±6 mmHg. The RPP in series [3] (0.75 μmol/L ouabain, from 26,497±664 mmHg/min, n=13) was 40,676±1159 mmHg/min. Besides, in series [3] (0.75 μmol/L ouabain, n=13), the “increase of LVSP” value was found to be 55±5% and the “increase of RPP” value was 59±6%. Moreover, in series [3] (setting [8]), the “diastolic function (pressure) during 20 min wash out” value was 34 mmHg and the “systolic pressure during 20 min wash out” value is listed as 70 mmHg. The “Left ventricular systolic pressure, maximum upon infusion with ouabain” value in series [3] (FIG. 1 representative tracing, ouabain without ranolazine, baseline 101 mmHg) is 140 mmHg. Further, the “EDP during toxic effect of ouabain” value in series [3] (FIG. 1 representative tracing, ouabain without ranolazine, increase from 8 mmHg) came out at 45 mmHg. For the same molecule, the developed pressure result in series [3] (FIG. 7, ouabain-only treated hearts) is given as “significantly decreased”. For the same molecule, the “LVDevP at the end of washout” value in series [3] (ouabain alone, control 89.1±1.0 mmHg) was 36.4±5.9 mmHg. In series [4] (3 to 5-min exposure to ouabain 1 μmol/L, from 23.5±4.9, n=8), the “integrated late INa” value came to 99.6±15.2 pC/pF. Moreover, the “late INa” value in series [4] (ouabain alone 1 μmol/L, 5-10 min, from 21±2, n=6) worked out at 84±12 pC/pF. Further, in series [4] (ouabain alone 1 μmol/L, 5-10 min, n=6), the “increase of late INa” value amounted to 318±74%.
